Square brackets hold non-standard residues; d marks the D form. Peptide text beside a SMILES is read from it.

For one test, the species on record is Homo sapiens. The experiment in a line: Selectivity index, ratio of Ki for displacement of [3H]-DAMGO from MOR (unknown origin) expressed in CHO cells to Ki for displacement of [3H]-Diprenorphine from KOR (unknown origin) expressed in CHO cells. Format: cell-based.
Another test deals with Mu-type opioid receptor (Homo sapiens, UniProt P35372). Kind of test: Displacement of [3H]-DAMGO from mu opioid receptor (unknown origin) expressed in CHO cells incubated for 90 mins in presence of peptidase inhibitors. The class given is cell-based.
Chain of Mu-type opioid receptor (P35372 whole entry): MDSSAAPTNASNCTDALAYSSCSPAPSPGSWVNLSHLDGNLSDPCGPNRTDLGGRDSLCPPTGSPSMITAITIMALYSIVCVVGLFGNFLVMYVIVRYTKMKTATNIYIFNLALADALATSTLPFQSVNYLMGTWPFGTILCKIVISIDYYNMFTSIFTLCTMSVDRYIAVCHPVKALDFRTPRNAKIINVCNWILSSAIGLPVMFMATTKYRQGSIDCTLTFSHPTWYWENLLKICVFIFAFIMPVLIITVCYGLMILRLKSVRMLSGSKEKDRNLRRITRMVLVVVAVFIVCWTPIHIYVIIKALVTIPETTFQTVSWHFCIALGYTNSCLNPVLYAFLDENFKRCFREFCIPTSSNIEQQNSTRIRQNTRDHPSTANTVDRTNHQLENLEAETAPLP
Test [1] addresses T1, Kappa-type opioid receptor (Homo sapiens, UniProt P41145). The experiment in a line: Displacement of [3H]-Diprenorphine from kappa opiod receptor (unknown origin) expressed in CHO cells incubated for 90 mins in presence of peptidase inhibitors. The class given is cell-based.
In test [2] the target is T1, Kappa-type opioid receptor. The experiment in a line: Antagonist activity at kappa opioid receptor (unkown origin) expressed in CHO cell membranes assessed as inhibition of Dyn A-(1-13)NH2 stimulated [35S]GTPgammaS binding incubated for 90 mins by liquid scintillation counting method. The class given is functional. The conditions noted are these: Membrane, filed as antagonist.

T1 sequence (P41145 whole entry): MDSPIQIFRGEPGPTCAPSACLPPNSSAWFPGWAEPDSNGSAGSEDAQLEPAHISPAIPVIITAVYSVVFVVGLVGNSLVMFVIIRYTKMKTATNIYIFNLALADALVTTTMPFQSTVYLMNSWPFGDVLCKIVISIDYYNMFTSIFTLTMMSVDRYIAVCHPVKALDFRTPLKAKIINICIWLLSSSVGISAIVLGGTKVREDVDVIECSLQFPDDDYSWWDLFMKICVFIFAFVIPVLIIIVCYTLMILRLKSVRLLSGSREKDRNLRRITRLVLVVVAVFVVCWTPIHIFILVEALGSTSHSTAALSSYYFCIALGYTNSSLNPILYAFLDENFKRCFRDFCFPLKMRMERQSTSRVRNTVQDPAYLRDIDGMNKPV

As for `C=CCOc1cccc(C[C@H](NC(C)=O)C(=O)N[C@@H](Cc2cccc(OCC=C)c2)C(=O)N[C@@H](Cc2ccccc2)C(=O)N[C@@H](CCCNC(=N)N)C(=O)N[C@@H](CC(C)C)C(=O)N[C@@H](CCCNC(=N)N)C(=O)N[C@@H](CCCNC(=N)N)C(=O)N[C@H](C)C(=O)N[C@@H](CCCNC(=N)N)C(=O)N2CCC[C@H]2C(=O)N[C@@H](CCCCN)C(N)=O)c1`, in the test filed under Homo sapiens, the Ratio Ki came to 7. The inhibitory constant (Ki) on Mu-type opioid receptor is 0.491 µM; in test [1] it was 0.0658 µM.

For `C=CCOc1ccc(C[C@H](NC(=O)[C@H](Cc2ccccc2)NC(C)=O)C(=O)N[C@@H](Cc2ccc(OCC=C)cc2)C(=O)N[C@@H](CCCNC(=N)N)C(=O)N[C@@H](CC(C)C)C(=O)N[C@@H](CCCNC(=N)N)C(=O)N[C@@H](CCCNC(=N)N)C(=O)N[C@H](C)C(=O)N[C@@H](CCCNC(=N)N)C(=O)N2CCC[C@H]2C(=O)N[C@@H](CCCCN)C(N)=O)cc1`, the Ratio Ki in the test filed under Homo sapiens was 65. Besides, the inhibition constant (Ki) was 1.22 µM on Mu-type opioid receptor and 0.0189 µM in test [1].

Consider `CC(=O)N[C@H]1Cc2cccc(c2)OC/C=C/COc2ccc(cc2)C[C@@H](C(=O)N[C@@H](Cc2ccccc2)C(=O)N[C@@H](CCCNC(=N)N)C(=O)N[C@@H](CC(C)C)C(=O)N[C@@H](CCCNC(=N)N)C(=O)N[C@@H](CCCNC(=N)N)C(=O)N[C@H](C)C(=O)N[C@@H](CCCNC(=N)N)C(=O)N2CCC[C@H]2C(=O)N[C@@H](CCCCN)C(N)=O)NC1=O`, for which the Ratio Ki in the test listed under Homo sapiens amounted to 22. Further, the Ki came to 0.657 µM at Mu-type opioid receptor and 0.0292 µM in test [1].

`CC(=O)N[C@@H](Cc1ccccc1)C(=O)N[C@H]1Cc2ccc(cc2)OC/C=C/COc2ccc(cc2)C[C@@H](C(=O)N[C@@H](CCCNC(=N)N)C(=O)N[C@@H](CC(C)C)C(=O)N[C@@H](CCCNC(=N)N)C(=O)N[C@@H](CCCNC(=N)N)C(=O)N[C@H](C)C(=O)N[C@@H](CCCNC(=N)N)C(=O)N2CCC[C@H]2C(=O)N[C@@H](CCCCN)C(N)=O)NC1=O`: the Ratio Ki in the test filed under Homo sapiens is 93. In addition, the Ki on Mu-type opioid receptor is 1.37 µM; in test [1], 0.0147 µM. Besides, the Kb in test [2] was 0.015 µM.

Regarding `CC(=O)N[C@H]1Cc2ccc(cc2)OC/C=C/COc2cccc(c2)C[C@@H](C(=O)N[C@@H](Cc2ccccc2)C(=O)N[C@@H](CCCNC(=N)N)C(=O)N[C@@H](CC(C)C)C(=O)N[C@@H](CCCNC(=N)N)C(=O)N[C@@H](CCCNC(=N)N)C(=O)N[C@H](C)C(=O)N[C@@H](CCCNC(=N)N)C(=O)N2CCC[C@H]2C(=O)N[C@@H](CCCCN)C(N)=O)NC1=O`, in the test filed under Homo sapiens, the Ratio Ki is 9. Besides, the Ki at Mu-type opioid receptor turned out to be 0.501 µM; in test [1] it was 0.0567 µM.

As for `C=CCOc1ccc(C[C@H](NC(C)=O)C(=O)N[C@@H](Cc2cccc(OCC=C)c2)C(=O)N[C@@H](Cc2ccccc2)C(=O)N[C@@H](CCCNC(=N)N)C(=O)N[C@@H](CC(C)C)C(=O)N[C@@H](CCCNC(=N)N)C(=O)N[C@@H](CCCNC(=N)N)C(=O)N[C@H](C)C(=O)N[C@@H](CCCNC(=N)N)C(=O)N2CCC[C@H]2C(=O)N[C@@H](CCCCN)C(N)=O)cc1`, the Ratio Ki in the test listed under Homo sapiens came out at 8. Besides, the inhibitory constant (Ki) at Mu-type opioid receptor was found to be 0.49 µM; in test [1] it was 0.0622 µM.

As to `C=CCOc1cccc(C[C@H](NC(=O)[C@H](Cc2ccccc2)NC(C)=O)C(=O)N[C@@H](Cc2cccc(OCC=C)c2)C(=O)N[C@@H](CCCNC(=N)N)C(=O)N[C@@H](CC(C)C)C(=O)N[C@@H](CCCNC(=N)N)C(=O)N[C@@H](CCCNC(=N)N)C(=O)N[C@H](C)C(=O)N[C@@H](CCCNC(=N)N)C(=O)N2CCC[C@H]2C(=O)N[C@@H](CCCCN)C(N)=O)c1`, the Ratio Ki in the test filed under Homo sapiens was found to be 255. In addition, the Ki at Mu-type opioid receptor came out at 0.838 µM; in test [1] it was 0.0033 µM.

As to `C=CCOc1ccc(C[C@H](NC(=O)[C@H](Cc2cccc(OCC=C)c2)NC(C)=O)C(=O)N[C@@H](Cc2ccccc2)C(=O)N[C@@H](CCCNC(=N)N)C(=O)N[C@@H](CC(C)C)C(=O)N[C@@H](CCCNC(=N)N)C(=O)N[C@@H](CCCNC(=N)N)C(=O)N[C@H](C)C(=O)N[C@@H](CCCNC(=N)N)C(=O)N2CCC[C@H]2C(=O)N[C@@H](CCCCN)C(N)=O)cc1`, in the test filed under Homo sapiens, the Ratio Ki stood at 11. For the same compound, the inhibition constant Ki was found to be 0.478 µM at Mu-type opioid receptor and 0.0432 µM in test [1].

`C=CCOc1ccc(C[C@H](NC(=O)[C@H](Cc2ccccc2)NC(C)=O)C(=O)N[C@@H](Cc2cccc(OCC=C)c2)C(=O)N[C@@H](CCCNC(=N)N)C(=O)N[C@@H](CC(C)C)C(=O)N[C@@H](CCCNC(=N)N)C(=O)N[C@@H](CCCNC(=N)N)C(=O)N[C@H](C)C(=O)N[C@@H](CCCNC(=N)N)C(=O)N2CCC[C@H]2C(=O)N[C@@H](CCCCN)C(N)=O)cc1`: the Ratio Ki in the test filed under Homo sapiens came to 118. The inhibition constant (Ki) at Mu-type opioid receptor turned out to be 1.38 µM; in test [1], 0.0117 µM.

As for `C=CCOc1ccc(C[C@H](NC(=O)[C@H](Cc2cccc(OCC=C)c2)NC(=O)[C@H](Cc2ccccc2)NC(C)=O)C(=O)N[C@@H](CCCNC(=N)N)C(=O)N[C@@H](CC(C)C)C(=O)N[C@@H](CCCNC(=N)N)C(=O)N[C@@H](CCCNC(=N)N)C(=O)N[C@H](C)C(=O)N[C@@H](CCCNC(=N)N)C(=O)N2CCC[C@H]2C(=O)N[C@@H](CCCCN)C(N)=O)cc1`, the Ratio Ki in the test listed under Homo sapiens was found to be 32. The Ki at Mu-type opioid receptor was 1.33 µM; in test [1], 0.0412 µM.

For `CC(=O)N[C@@H](Cc1ccccc1)C(=O)N[C@H]1Cc2cccc(c2)OC/C=C/COc2ccc(cc2)C[C@@H](C(=O)N[C@@H](CCCNC(=N)N)C(=O)N[C@@H](CC(C)C)C(=O)N[C@@H](CCCNC(=N)N)C(=O)N[C@@H](CCCNC(=N)N)C(=O)N[C@H](C)C(=O)N[C@@H](CCCNC(=N)N)C(=O)N2CCC[C@H]2C(=O)N[C@@H](CCCCN)C(N)=O)NC1=O`, the Ratio Ki in the test filed under Homo sapiens is 50. Further, the Ki at Mu-type opioid receptor worked out at 1.96 µM; in test [1], 0.0392 µM.

In the case of `CC(=O)N[C@@H](Cc1ccccc1)C(=O)N[C@@H](Cc1ccccc1)C(=O)N[C@@H](Cc1ccccc1)C(=O)N[C@@H](CCCNC(=N)N)C(=O)N[C@@H](CC(C)C)C(=O)N[C@@H](CCCNC(=N)N)C(=O)N[C@@H](CCCNC(=N)N)C(=O)N[C@H](C)C(=O)N[C@@H](CCCNC(=N)N)C(=O)N1CCC[C@H]1C(=O)N[C@@H](CCCCN)C(N)=O` (Ac-FFFRLRR[dA]RPK-NH2), the Ratio Ki in the test filed under Homo sapiens is 174. For the same compound, the Ki on Mu-type opioid receptor came to 1.74 µM.

Consider `C=CCOc1ccc(C[C@H](NC(C)=O)C(=O)N[C@@H](Cc2ccc(OCC=C)cc2)C(=O)N[C@@H](Cc2ccccc2)C(=O)N[C@@H](CCCNC(=N)N)C(=O)N[C@@H](CC(C)C)C(=O)N[C@@H](CCCNC(=N)N)C(=O)N[C@@H](CCCNC(=N)N)C(=O)N[C@H](C)C(=O)N[C@@H](CCCNC(=N)N)C(=O)N2CCC[C@H]2C(=O)N[C@@H](CCCCN)C(N)=O)cc1`, for which, in the test filed under Homo sapiens, the Ratio Ki turned out to be 18. In addition, the inhibitory constant (Ki) at Mu-type opioid receptor was 0.221 µM; in test [1], 0.0121 µM.

`CC(=O)N[C@H]1Cc2cccc(c2)OC/C=C/COc2cccc(c2)C[C@@H](C(=O)N[C@@H](Cc2ccccc2)C(=O)N[C@@H](CCCNC(=N)N)C(=O)N[C@@H](CC(C)C)C(=O)N[C@@H](CCCNC(=N)N)C(=O)N[C@@H](CCCNC(=N)N)C(=O)N[C@H](C)C(=O)N[C@@H](CCCNC(=N)N)C(=O)N2CCC[C@H]2C(=O)N[C@@H](CCCCN)C(N)=O)NC1=O`: the Ratio Ki in the test listed under Homo sapiens was determined as 24. Also, the inhibitory constant (Ki) at Mu-type opioid receptor came to 1.63 µM; in test [1], 0.0682 µM.

For the compound `CC(=O)N[C@@H](Cc1ccccc1)C(=O)N[C@H]1Cc2cccc(c2)OC/C=C\COc2cccc(c2)C[C@@H](C(=O)N[C@@H](CCCNC(=N)N)C(=O)N[C@@H](CC(C)C)C(=O)N[C@@H](CCCNC(=N)N)C(=O)N[C@@H](CCCNC(=N)N)C(=O)N[C@H](C)C(=O)N[C@@H](CCCNC(=N)N)C(=O)N2CCC[C@H]2C(=O)N[C@@H](CCCCN)C(N)=O)NC1=O`, in the test listed under Homo sapiens, the Ratio Ki stood at 54. For the same compound, the Ki was found to be 0.828 µM on Mu-type opioid receptor and 0.0154 µM in test [1].

Consider `CC(=O)N[C@H]1Cc2ccc(cc2)OC/C=C/COc2ccc(cc2)C[C@@H](C(=O)N[C@@H](Cc2ccccc2)C(=O)N[C@@H](CCCNC(=N)N)C(=O)N[C@@H](CC(C)C)C(=O)N[C@@H](CCCNC(=N)N)C(=O)N[C@@H](CCCNC(=N)N)C(=O)N[C@H](C)C(=O)N[C@@H](CCCNC(=N)N)C(=O)N2CCC[C@H]2C(=O)N[C@@H](CCCCN)C(N)=O)NC1=O`, for which, in the test listed under Homo sapiens, the Ratio Ki was found to be 123. Moreover, the Ki at Mu-type opioid receptor was found to be 1.43 µM; in test [1], 0.0117 µM. Further, the Kb in test [2] was determined as 0.288 µM.

In the case of `CC(=O)N[C@@H](Cc1ccccc1)C(=O)N[C@H]1Cc2ccc(cc2)OC/C=C/COc2cccc(c2)C[C@@H](C(=O)N[C@@H](CCCNC(=N)N)C(=O)N[C@@H](CC(C)C)C(=O)N[C@@H](CCCNC(=N)N)C(=O)N[C@@H](CCCNC(=N)N)C(=O)N[C@H](C)C(=O)N[C@@H](CCCNC(=N)N)C(=O)N2CCC[C@H]2C(=O)N[C@@H](CCCCN)C(N)=O)NC1=O`, the Ratio Ki in the test filed under Homo sapiens was 31. Moreover, the values for the inhibition constant (Ki) (at Mu-type opioid receptor; in test [1]) were 0.607 µM and 0.0198 µM, respectively.

The values are drawn from ChEMBL document CHEMBL5055617, “Conformational Constraint between Aromatic Residue Side Chains in the "Message" Sequence of the Peptide Arodyn Using Ring Closing Metathesis Results in a Potent and Selective Kappa Opioid Receptor Antagonist” (J Med Chem, 2021).
